Assay results reported in US6451288B1, “Method of treating lung diseases with uridine 5′-diphosphate and analogs thereof” (The University of North Carolina at Chapel Hill, priority 1997, dated 2002).

Legend:
[1] = system: human nasal epithelial cells; assay: Cl- secretion (transepithelial potential difference, Ussing chamber) in human nasal epithelial cells; format: cell-based
Description: (§1) Human nasal epithelial cells were harvested from turbinates using protease XIV (Sigma, St. Louis, Mo.) for 24-48 h at 4° C., as previously described. R. Wu, et al., Am. Rev. Respir. Dis. 132, 311-320 (1985). Cytosolic Ca^2+ and inositol phosphate measurements were made on nasal cell monolayers plated on porous Transwell Col filters (pore diameter 0.45 μm; Costar, Cambridge, Mass.) and maintained in Ham's F12 media supplemented with 10 ng/mL epidermal growth factor, 3.75 ng/mL endothelial cell growth factor, 500 ng/mL hydrocortisone, 5 ng/mL insulin, and 1 mM CaCl2 (Ham's F12+4X medium). Assays were carried out 7 to 10 days after seeding, a time coincident with the development of the maximal transepithelial potential difference according to N. Nakahata & T. K. Harden, Biochem. J. 241, 337-344 (1987).
(§2) Nasal cells grown on Transwell Col filters affixed to O-rings were maintained in F12+4X medium and studied 7-10 days after cell plating as described above. For Ca^2+i measurements, cells were loaded with Fura-2 and mounted in a miniature Ussing chamber over an objective of a microscope (Zeiss) coupled to a microfluorimeter, and cytosolic Ca^2+i levels were quantitated as previously described in Paradiso et al., supra. The fluorescence intensity ratio (excitation 340/380; emission λ 450 nm) was collected from a field of 30-40 nasal cells on monolayers and converted to Ca^2+ as previously described in E. H. Larsen et al, J. Physiol. 424, 109-131 (1990). For simultaneous measurements of Cl^− secretion, the transepithelial potential difference (TEP) was measured by a Voltage-Clamp/Pulse Generator (Model VCC600, Physiologic Instruments, San Diego, Calif.) and recorded on a two-channel recorder (Linsesis Model L200S). To calculate changes in Cl^− secretory current (ΔICl^−), a defined 1 sec current pulse was delivered across the monolayer every 10 sec. The nasal tissue was converted from its native Na^+ absorptive state to a Cl^− secretory state by exposing monolayers to a luminal medium containing 0 Na^+/low Cl^− and to a basolateral medium of Krebs bicarbonate Ringer solution.

sheep [2] = assay: Mucociliary clearance in sheep; format: in vivo; settings: 400 μmole nebulized
Description: Healthy adult ewes were given ^99mTc-labeled serum albumin (^99mTc-HCA) via a nebulized aerosol. The (^99mTc-HCA)(20 mCi) was administered over 5 minutes through a nasotracheal tube introduced under local anesthesia with 2% lidocaine. After administration of the ^99Tc-HCA, the animals were given the test compound UDP. The test compound was administered by nebulization in a volume of 4 mL over a period of 10-12 min. The test compound was given at a dose of 400 μmole. After the administration of the test compound, the animals were extubated. Clearance of the radiolabeled particles was monitored with a gamma camera. Measurements were made a 0, 5, 10, 15, 20, 25, 30, 35, 40, 45, 50, 55, 60, 75, 90, 105 and 120 minutes. Results of this study (n=7) have shown that the test compound promotes clearance of radiolabeled particles when compared to the saline control. […] The response to UDP was maximal at 60 minutes and was maintained for the second hour of the study. The results of this experiment are illustrated graphically in FIG. 6.

[3] = system: human nasal epithelial cells; assay: [3H]inositol phosphate formation in polarized human nasal epithelial cells; format: cell-based
Description: as §1
Confluent human nasal epithelial cells as described in Example 1 were labeled for 18 h in inositol-free DMEM containing 4.5g/L glucose and 5 μCi/mL of [^3H]myo-inositol. These cells were pre-incubated with 10 mM LiCl and challenged with agonists for an additional 10 min. No changes of medium were made subsequent to addition of [^3H]myo-inositol to avoid release of endogenous ATP from stressed cells. E. R. Lazarowski et al., Br. J Pharmacol. 116, 1619-1627 (1995). Incubations were terminated by addition of 5% ice-cold trichloroacetic acid and the resultant [^3H]inositol phosphates were separated on Dowex AG1-X8 columns as described in A. M. Paradiso et al., Nature 377, 643-646 (1995).

sheep [4] = assay: Tracheal mucus velocity in sheep; format: in vivo; settings: 400 μmole nebulized
Text: To measure the effect of UDP on tracheal mucus velocity (TMV), the nasal passages of conscious adult ewes were anesthetized with a 2% lidocaine solution. After local anesthesia was produced, a modified endotracheal tube (7.5 mm) was placed such that the cuff was just below the vocal cords (as verified by fluoroscopy). Inspired air was warmed and humidified. The cuff on the endotracheal tube was inflated only during administration of the test compound to minimize possible impairment of TMV by the cuff. Test compounds were administered by nebulization in a volume of 4 mL over a period of 10-12 min. TMV was measured by fluoroscopy. Ten to twenty radiopaque disks (Teflon/bismuth trioxide; 1 mm diameter; 0.8 mm thick, weighing 1.8 mg) were introduced into the trachea through a modified suction catheter with a puff of compressed air (3-4 L/min). Velocities of the individual disks were recorded on videotape form a portable image intensifier unit. Individual disk velocities were calculated by measuring the distance traveled by each disk during a 1 min observation period. Values reported are the means of the individual disk velocities. A collar was worn by the sheep, which was used as a standard to correct for magnification errors inherent in the fluoroscope.

P2Y2 receptor = P2Y2 receptor (Homo sapiens, UniProt P41231); settings: UTP-free UDP; cited from earlier work
[5] = system: human nasal epithelial cells; assay: Cytosolic Ca2+ measurement (Fura-2) in human nasal epithelial cells; format: cell-based
Description: as §1, §2

[6] = subsequent 3 μM then 10 μM UDP, mucosal (desensitization)

Chain of P2Y2 receptor (P41231 whole entry): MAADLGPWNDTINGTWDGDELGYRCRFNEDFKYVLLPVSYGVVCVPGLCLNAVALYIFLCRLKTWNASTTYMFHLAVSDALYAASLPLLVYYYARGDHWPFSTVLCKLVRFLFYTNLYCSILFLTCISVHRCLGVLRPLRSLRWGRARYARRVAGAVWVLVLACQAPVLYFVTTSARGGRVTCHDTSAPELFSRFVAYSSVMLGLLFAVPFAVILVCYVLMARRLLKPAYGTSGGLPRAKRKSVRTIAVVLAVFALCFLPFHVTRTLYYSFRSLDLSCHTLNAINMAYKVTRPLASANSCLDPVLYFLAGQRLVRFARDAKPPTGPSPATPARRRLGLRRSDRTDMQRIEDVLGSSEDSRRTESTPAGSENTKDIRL

O=c1ccn([C@@H]2O[C@H](COP(=O)(O)OP(=O)(O)O)[C@@H](O)[C@H]2O)c(=O)[nH]1 [UDP, uridine 5′-diphosphate]
ΔICl-, mucosal ([1]; 3 μM, mucosal): 16±3 μA·cm^2
Cl- secretory response (ΔICl-) ([1]; 3 μM, mucosal bath, first addition, n=8): −16.3±3 μA/cm^2
ΔICl-, serosal ([1]; 3 μM, serosal): 0±0 μA·cm^2
Magnitude of Cl- secretion response relative to mucosal UTP response ([1]; mucosal): approximately one half
ΔICl- after subsequent addition [1, 6]: 0
Time of maximal response (clearance) (sheep [2]): 60 min
Maximal effect, clearance of radiolabeled particles (sheep [2]; n=7): 33.6±1.6 % clearance
Accumulation of [3H]inositol phosphates, mucosal ([3]; 100 μM, mucosal): marked accumulation
Effect on inositol phosphate accumulation, serosal bath ([3]; 100 μM, serosal): negligible effect
EC50 ([3]; Homo sapiens, Epithelial cell, 10 min, added to mucosal medium, 10 min, read-out: EC50 for stimulating inositol phosphate formation): 190 ± 27 nM
Maximal inositol phosphate effect relative to response with mucosal UTP ([3]; mucosal, 100 μM): approximately one half
Time of maximal effect after administration (TMV) (sheep [4]): 15 min
Activity at the P2Y2 receptor (P2Y2 receptor): essentially inactive
ΔCa2+ (mobilization of intracellular calcium) ([5]; 3 μM, mucosal bath, first addition): 66 ± 12 nM
Maximal calcium mobilization effect relative to response with mucosal UTP ([5]; mucosal, 100 μM): approximately one half
ΔCa2+ after subsequent addition [5, 6]: 0
